According to ChEMBL document CHEMBL3044631, “Synthesis of 2-[4,5-dimethyl-1-(phenylamino)-1H-imidazol-2-ylthio]-N-(thiazole-2-yl)acetamide derivatives and their anticancer activities” (2013):

Legend:
Type in all cases: functional
[1] = system: SK-MEL-2; experiment: Anticancer activity against Homo sapiens (human) SK-MEL-2 cells after 48 hr by SRB assay; settings: SK-MEL-2, 48 h
[2] = system: HCT-116; experiment: Anticancer activity against Homo sapiens (human) HCT116 cells after 48 hr by SRB assay; settings: HCT-116, 48 h
[3] = system: NCI-H460; experiment: Anticancer activity against Homo sapiens (human) NCI-H460 cells after 48 hr by SRB assay; settings: NCI-H460, 48 h
[4] = system: SK-MEL-5; experiment: Anticancer activity against Homo sapiens (human) SK-MEL-5 cells after 48 hr by SRB assay; settings: SK-MEL-5, 48 h
[5] = system: SK-OV-3; experiment: Anticancer activity against Homo sapiens (human) SKOV3 cells after 48 hr by SRB assay; settings: SK-OV-3, 48 h
[6] = system: MOLT-4; experiment: Anticancer activity against Homo sapiens (human) MOLT4 cells after 48 hr by SRB assay; settings: MOLT-4, 48 h
[7] = system: HOP-62; experiment: Anticancer activity against Homo sapiens (human) HOP62 cells after 48 hr by SRB assay; settings: HOP-62, 48 h
[8] = system: Hs-578T; experiment: Anticancer activity against Homo sapiens (human) Hs 578T cells after 48 hr by SRB assay
[9] = system: NCI-H23; experiment: Anticancer activity against Homo sapiens (human) NCI-H23 cells after 48 hr by SRB assay; settings: NCI-H23, 48 h
[10] = system: IGROV-1; experiment: Anticancer activity against Homo sapiens (human) IGROV1 cells after 48 hr by SRB assay; settings: IGROV-1, 48 h
[11] = system: A498; experiment: Anticancer activity against Homo sapiens (human) A498 cells after 48 hr by SRB assay; settings: A498, 48 h
[12] = system: TK-10; experiment: Anticancer activity against Homo sapiens (human) TK10 cells after 48 hr by SRB assay; settings: TK-10, 48 h
[13] = system: Malme-3M; experiment: Anticancer activity against Homo sapiens (human) MALME-3M cells after 48 hr by SRB assay
[14] = system: 786-0; experiment: Anticancer activity against Homo sapiens (human) 786-0 cells after 48 hr by SRB assay; settings: 786-0, 48 h
[15] = system: A549; experiment: Anticancer activity against Homo sapiens (human) A549/ATCC cells after 48 hr by SRB assay; settings: A549, 48 h
[16] = system: NCI-H522; experiment: Anticancer activity against Homo sapiens (human) NCI-H522 cells after 48 hr by SRB assay; settings: NCI-H522, 48 h
[17] = system: UO-31; experiment: Anticancer activity against Homo sapiens (human) UO31 cells after 48 hr by SRB assay; settings: UO-31, 48 h
[18] = system: LOX IMVI; experiment: Anticancer activity against Homo sapiens (human) LOXIMVI cells after 48 hr by SRB assay
[19] = system: MDA-MB-468; experiment: Anticancer activity against Homo sapiens (human) MDA-MB-468 cells after 48 hr by SRB assay; settings: MDA-MB-468, 48 h
[20] = system: NCI-H322M; experiment: Anticancer activity against Homo sapiens (human) NCI-H322M cells after 48 hr by SRB assay
[21] = system: OVCAR-8; experiment: Anticancer activity against Homo sapiens (human) OVCAR8 cells after 48 hr by SRB assay; settings: OVCAR-8, 48 h
[22] = system: ACHN; experiment: Anticancer activity against Homo sapiens (human) ACHN cells after 48 hr by SRB assay
[23] = system: COLO 205; experiment: Anticancer activity against Homo sapiens (human) COLO205 cells after 48 hr by SRB assay; settings: COLO 205, 48 h
[24] = system: HCT-15; experiment: Anticancer activity against Homo sapiens (human) HCT15 cells after 48 hr by SRB assay; settings: HCT-15, 48 h
[25] = system: K562; experiment: Anticancer activity against Homo sapiens (human) K562 cells after 48 hr by SRB assay; settings: K562, 48 h
[26] = system: MDA-MB-231; experiment: Anticancer activity against Homo sapiens (human) MDA-MB-231/ATCC cells after 48 hr by SRB assay; settings: MDA-MB-231, 48 h
[27] = system: HT-29; experiment: Anticancer activity against Homo sapiens (human) HT-29 cells after 48 hr by SRB assay; settings: HT-29, 48 h
[28] = system: DU-145; experiment: Anticancer activity against Homo sapiens (human) DU145 cells after 48 hr by SRB assay; settings: DU-145, 48 h
[29] = system: EKVX; experiment: Anticancer activity against Homo sapiens (human) EKVX cells after 48 hr by SRB assay
[30] = system: BT-549; experiment: Anticancer activity against Homo sapiens (human) BT549 cells after 48 hr by SRB assay; settings: BT-549, 48 h
[31] = system: UACC-257; experiment: Anticancer activity against Homo sapiens (human) UACC257 cells after 48 hr by SRB assay; settings: UACC-257, 48 h
[32] = read-out: LC50 (the source's name)

Compound: Cc1nc(SCC(=O)Nc2nc(-c3ccc(Cl)cc3)cs2)n(Nc2ccccc2)c1C
- GI50 [1]: 10.1 µM
- LC50 (concentration killing 50% of cells) [1]: 75.5 µM
- TGI [1]: 27.6 µM
- GI50 [2]: 1.84 µM
- LC50 [2]: 15.5 µM
- TGI [2]: 4.62 µM
- GI50 [3]: 2.89 µM
- LC50 [3]: 82.1 µM
- TGI [3]: 11 µM
- GI50 [4]: 2.24 µM
- LC50 (concentration killing 50% of cells) [4]: 25.8 µM
- TGI [4]: 6.31 µM
- GI50 [5]: 5.91 µM
- LC50 (50% lethal concentration) [5]: 47.4 µM
- TGI [5]: 19.8 µM
- GI50 [6]: 2.51 µM
- LC50 (50% lethal concentration) [6]: > 100 µM
- TGI [6]: 9.94 µM
- GI50 [7]: 3.06 µM
- LC50 [7]: 31.7 µM
- TGI [7]: 9.63 µM
- GI50 [8]: 3.42 µM
- TGI [8]: 21.6 µM
- CC50 [8, 32]: > 100 µM
- GI50 [9]: 1.85 µM
- TGI [9]: 6.02 µM
- CC50 [9, 32]: 26.3 µM
- GI50 [10]: 3.36 µM
- LC50 (concentration killing 50% of cells) [10]: > 100 µM
- TGI [10]: 20.6 µM
- GI50 [11]: 2.24 µM
- LC50 [11]: 35.8 µM
- TGI [11]: 10.5 µM
- GI50 [12]: 3.65 µM
- LC50 (50% lethal concentration) [12]: 40.7 µM
- TGI [12]: 13.8 µM
- GI50 [13]: 10.8 µM
- TGI [13]: 37.6 µM
- CC50 [13, 32]: > 100 µM
- GI50 [14]: 3.6 µM
- LC50 (lethal concentration 50) [14]: 38.9 µM
- TGI [14]: 13.7 µM
- GI50 [15]: 2.9 µM
- LC50 [15]: 40.1 µM
- TGI [15]: 11.6 µM
- GI50 [16]: 2.54 µM
- LC50 (50% lethal concentration) [16]: 66.5 µM
- TGI [16]: 13.7 µM
- GI50 [17]: 3.59 µM
- TGI [17]: 37.7 µM
- CC50 [17, 32]: > 100 µM
- GI50 [18]: 1.78 µM
- LC50 (50% lethal concentration) [18]: 7.79 µM
- TGI [18]: 3.72 µM
- GI50 [19]: 1.45 µM
- LC50 [19]: 40.4 µM
- TGI [19]: 6.27 µM
- GI50 [20]: 4.17 µM
- TGI [20]: 22.9 µM
- CC50 [20, 32]: > 100 µM
- GI50 [21]: 2.71 µM
- TGI [21]: 7.73 µM
- CC50 [21, 32]: 38.9 µM
- GI50 [22]: 3.67 µM
- LC50 (concentration killing 50% of cells) [22]: 51.5 µM
- TGI [22]: 14.1 µM
- GI50 [23]: 4.13 µM
- TGI [23]: 14.5 µM
- CC50 [23, 32]: 49.8 µM
- GI50 [24]: 5.74 µM
- TGI [24]: 23.3 µM
- CC50 [24, 32]: 76.9 µM
- GI50 [25]: 0.12 µM
- TGI [25]: > 100 µM
- CC50 [25, 32]: > 100 µM
- GI50 [26]: 3.01 µM
- TGI [26]: 15.2 µM
- CC50 [26, 32]: 57.8 µM
- GI50 [27]: 3.78 µM
- LC50 [27]: 49.5 µM
- TGI [27]: 15.4 µM
- GI50 [28]: 5.64 µM
- LC50 (concentration killing 50% of cells) [28]: 45.4 µM
- TGI [28]: 18.7 µM
- GI50 [29]: 1.84 µM
- TGI [29]: 12.2 µM
- CC50 [29, 32]: 94.1 µM
- GI50 [30]: 7.02 µM
- LC50 [30]: 51.8 µM
- TGI [30]: 20.9 µM
- GI50 [31]: 3.07 µM
- LC50 [31]: > 100 µM
- TGI [31]: 17 µM
